Measurements reported in the RepoRT retention time repository.

Assay: HILIC, HILICON iHILIC-(P) Classic, HILIC, PEEK, 100 × 2.1 mm, 5 µm, 40 °C, 0.15 mL/min, estimated dead time 1.5 min; A: water + 20 mM ammonium carbonate + 5 µM medronic acid; B: 10% water + 90% acetonitrile + 2 mM ammonium carbonate + 0.5 µM medronic acid; gradient (min/%B) 0/95 18/55 19/20 22/20 22.5/95 24/95 26/95
Conditions: stereoisomer not certain

| LC retention time [min] | Compound |
| --- | --- |
| 10.3 | NC(=O)c1ccc[n+](C2OC(COP(=O)(O)OP(=O)(O)OCC3OC(n4cnc5c(N)ncnc54)C(O)C3O)C(O)C2O)c1 (centres undefined) [NAD] |
| 12.3 | O=P(O)(O)OC1OC(CO)C(O)C(O)C1O (centres undefined) [Glucose-1-phosphate] |
| 11.5 | O=P(O)(O)OCC1OC(O)C(O)C1O (centres undefined) [Pentose-phosphate] |
| 16.4 | NC(=O)C1=CN(C2OC(COP(=O)(O)OP(=O)(O)OCC3OC(n4cnc5c(N)ncnc54)C(OP(=O)(O)O)C3O)C(O)C2O)C=CC1 (centres undefined) [NADPH] |
| 12 | CC(=O)NC1C(OP(=O)(O)OP(=O)(O)OCC2OC(n3ccc(=O)[nH]c3=O)C(O)C2O)OC(CO)C(O)C1O (centres undefined) [UDP-GlcNAc] |
| 10.3 | NC(CC(=O)O)C(=O)O (centres undefined) [Aspartic Acid] |
| 18.9 | NC(N)=NCCCC(N)C(=O)O (centres undefined) [Arginine] |
| 12.7 | O=C(O)C=CC(=O)O [Fumaric Acid] |
| 13.7 | O=P(O)(O)OCC1OC(O)C(O)C(O)C1O (centres undefined) [Glucose-6-phosphate] |
| 15.1 | NC(CCC(=O)NC(CSSCC(NC(=O)CCC(N)C(=O)O)C(=O)NCC(=O)O)C(=O)NCC(=O)O)C(=O)O (centres undefined) [GSSG] |
| 14.5 | NC(=O)c1ccc[n+](C2OC(COP(=O)(O)OP(=O)(O)OCC3OC(n4cnc5c(N)ncnc54)C(OP(=O)(O)O)C3O)C(O)C2O)c1 (centres undefined) [NADP] |
| 14.6 | Nc1ncnc2c1ncn2C1OC(COP(=O)(O)OP(=O)(O)OP(=O)(O)O)C(O)C1O (centres undefined) [ATP] |
| 10.2 | NC(=O)CCC(N)C(=O)O (centres undefined) [Glutamine] |
| 11.2 | O=C(O)CCC(=O)O [Succinic Acid] |
| 9.58 | NC(CCC(=O)NC(CS)C(=O)NCC(=O)O)C(=O)O (centres undefined) [GSH] |
| 2.68 | CC(O)C(=O)O (centres undefined) [Lactic Acid] |
| 12 | Nc1ncnc2c1ncn2C1OC(COP(=O)(O)OP(=O)(O)O)C(O)C1O (centres undefined) [ADP] |

| LC retention time [min] | Compound |
| --- | --- |
| 16.3 | O=P(O)(O)OCC1OC(O)(COP(=O)(O)O)C(O)C1O (centres undefined) [Fructose-1,6-bisphosphate] |
| 10 | CC(=O)SCCNC(=O)CCNC(=O)C(O)C(C)(C)COP(=O)(O)OP(=O)(O)OCC1OC(n2cnc3c(N)ncnc32)C(O)C1OP(=O)(O)O (centres undefined) [Acetyl-CoA] |
| 15.9 | O=C(O)CC(C(=O)O)C(O)C(=O)O (centres undefined) [Isocitric acid] |
| 11.6 | CC(C)(COP(=O)(O)OP(=O)(O)OCC1OC(n2cnc3c(N)ncnc32)C(O)C1OP(=O)(O)O)C(O)C(=O)NCCC(=O)NCCS (centres undefined) [CoenzymeA] |
| 18.7 | NCCCCC(N)C(=O)O (centres undefined) [Lysine] |
| 11.1 | O=P(O)(O)OCC(O)CO (centres undefined) [Glycerol-3-phosphate] |
| 3.83 | Nc1ncnc2c1ncn2C1OC(CO)C(O)C1O (centres undefined) [Adenosine] |
| 10.4 | NC(=O)CC(N)C(=O)O (centres undefined) [Asparagine] |
| 10.4 | Nc1ncnc2c1ncn2C1OC(COP(=O)(O)O)C(O)C1O (centres undefined) [AMP] |
| 11.4 | O=C(CO)COP(=O)(O)O [Triose phosphate] |
| 11.9 | O=C(O)CC(O)C(=O)O (centres undefined) [Malic Acid] |
| 9.88 | NC(=O)C1=CN(C2OC(COP(=O)(O)OP(=O)(O)OCC3OC(n4cnc5c(N)ncnc54)C(O)C3O)C(O)C2O)C=CC1 (centres undefined) [NADH] |
| 14.6 | C=C(OP(=O)(O)O)C(=O)O [PEP] |
| 12.3 | O=C(CO)C(O)C(O)C(O)COP(=O)(O)O (centres undefined) [Fructose 6-phosphate] |
| 9.88 | NC(CCC(=O)O)C(=O)O (centres undefined) [Glutamic acid] |
| 13 | O=C(O)CCC(=O)C(=O)O [2-Oxoglutaric acid] |
| 15.3 | O=C(O)CC(O)(CC(=O)O)C(=O)O [Citric acid] |
